The values that follow come from US8921414B2, “Spiroketals” (EcoBiotics Ltd, priority 2005, dated 2014).

Values after ≈ are worked out from the molar mass of the structure shown.

One data set relates to ovarian C180-13S. Nature of the data set: Additional in vitro activity: antitumor activity, C180-13S. The format is cell-based, human. As to conditions: concentration with activity.
A further data set relates to K562 leukemia. The data set can be described thus: Cell growth inhibition (Table 22), K562. In kind it is cell-based. The note with it: Homo sapiens, read-out: IC50 (drug dose which inhibits cell growth by 50%) K562. On the procedure: (§1) The isolated compounds were tested against a number of human and non-human cancer cell lines. The human tumor cell lines were: MCF-7, MDA-MB-231 and T47D, breast cancer; DU145 and PC3, prostate cancer; CI80-13S, ovarian cancer; MM96L, D04, SkMel5, MM418c5 melanoma; HT29, colon cancer; K562 and HL60, leukemia. Mouse cell lines were the B16 mouse melanoma and LK2 UV-induced squamous cell carcinoma (SCC). Neonatal foreskin fibroblasts (NFF) were used as normal control cells. Cells were cultured at 37° C. in 5% carbon dioxide/air, in RPMI 1640 medium containing 10% fetal calf serum.

For the next data set, the system named is Drosophila melanogaster. The data set can be described thus: DipteraTOX insecticidal bioassay. On the set-up: key: A value of A in DipG, Dip P or Dip H represents very active; a value of P represents active. As to conditions: 250 μg per mL in agar. The method, then:
DipteraTOX. DipteraTOX is referred to herein as DipG, DipP and DipH. DipG represents no grazing of larva. DipP represents no pupae formation and Dip H represents no hatching of flies. A value of A in DipG, Dip P or Dip H represents very active and a value of P represents active. In DipteraTox the fly eggs are applied to the surface of an agar matrix containing 250 μg per mL of the test chemical and allowed to hatch, develop and pupate for a period up of two weeks. The assay was monitored at two discrete times to determine the extent of grazing of the agar matrix at Week 1 and the presence of adult flies at Week 2. […] Drosophila melanogaster was utilised for this assay.

Data set [1] deals with NS1 murine myeloma cell line. The data set can be described thus: CyTOX (Cy) cytotoxicity bioassay. In kind it is cell-based. As to conditions: for Cy LD99: weight of chemical in last well with activity, real value may be lower. The text has this:
CyTOX (alternatively referred to herein as Cy) is a microtitre plate bioassay use to identify potential antitumor actives. CyTOX is a chromogenic bioassay with broad application to a wide range of tumor and non-tumor cell lines. […] CyTOX features a liquid media into which the test compound has been incorporated together with a novel chromogen. As the cells grow and divide the chromogen is metabolised from purple in a single step process to a colourless metabolite. CyTOX is routinely undertaken using NS1 murine myeloma cell line as a guide to mammalian cell toxicity. Briefly, in CyTOX the cells were applied to the media containing the test chemical and allowed to grow for 72 hours. The assay was monitored at 24, 48 and 72 hours and the active wells identified.

The subject of the next data set is breast MCF-7. Nature of the data set: Additional in vitro activity: antitumor activity, MCF-7. In kind it is cell-based, human. The note with it: concentration with activity.
For another data set, the system named is Haemonchus contortus. The data set can be described thus: NemaTOX (Ne) anthelmintic larval development bioassay. The note with it: for Ne LD99: weight of chemical in last well with activity, real value may be lower. The method, then: NemaTOX (alternatively referred to herein as Ne) is an anthelmintic bioassay, applicable to all parasitic nematodes with free-living life cycle stages, and can be used as a screen to detect activity and define the species spectrum of compounds against parasitic nematodes and examine the impact of pre-existing resistance to other anthelmintic classes on potency. Haemonchus contortus was utilised for this assay.
The effect on larval development is determined in this assay by the method described by Gill et al. (1995) Int. J. Parasitol. 25: 463-470. Briefly, in this assay nematode eggs were applied to the surface of an agar matrix containing the test sample and allowed to develop through to the L3, infective stage (6 days). At this time the stage of larval development reached and any unusual features (deformity, paralysis, toxicity) were noted by microscopic examination.

The subject of another data set is melanoma MM96L. Nature of the data set: Additional in vitro activity: antitumor activity, MM96L. In kind it is cell-based, human. The note with it: concentration with activity.
The subject of a further data set is prostate DU145. The data set can be described thus: Additional in vitro activity: antitumor activity, DU145. In kind it is cell-based, human. The note with it: concentration with activity.
In another data set the test system is CI80-13S ovarian cancer. Nature of the data set: Cell growth inhibition (Table 22), C180-13S. The format is cell-based. As to conditions: Homo sapiens, read-out: IC50 (drug dose which inhibits cell growth by 50%) C180-13S. The method, then: as §1
The subject of data set [2] is normal human fibroblasts (NFF). The data set can be described thus: Additional in vitro activity: cytotoxic activity, NFF. In kind it is cell-based. The note with it: concentration with activity.
Data set [3] deals with EBV-infected peripheral blood mononuclear cells (PBMCs). Nature of the data set: EBV transformation of donor PBMCs (anti-inflammatory screening). The format is cell-based, human. As to conditions: 2 μg/mL, 28 days, visual and 3H-T cpm. The method, then:
Three main assays were performed; transformation, regression and mixed lymphocyte reactions (MLRs). Reference is made to Moss et al., (D J, Rickinson A B, Pope J H: Long-term T-cell-mediated immunity to Epstein-Barr virus in man. III. Activation of cytotoxic T cells in virus-infected leukocyte cultures. Int J Cancer 1979, 23:618-625). Complete regression of virus-induced transformation in cultures of seropositive donor leukocytes
Both regression and MLR quantitative experimental results were obtained visually and by the addition of [methyl-^3H]thymidine (3H-T). 3H-T is a nucleoside analogue and is incorporated into the DNA of proliferating cells. If cells are proliferating, the counts/minute (cpm) is high; if cells are dead, the cpm is low.
EBV seronegative and seropositive donors' peripheral blood mononuclear cells (PBMCs) were infected with EBV. […]
The cells were then incubated for 28 days when results were determined visually and by the addition of 3H-T to obtain quantitative data.
The individual transformation summaries were determined by visual data and 3H-T cpm data from EBV seronegative_donors' peripheral blood mononuclear cells (PBMC). […] The 3H-T cpm cut-off values were determined for each individual assay by this control value, plus and minus a five (5)-fold difference. […]

For another data set, the system named is leukemia K562. Nature of the data set: Additional in vitro activity: antitumor activity, K562. The format is cell-based, human. The note with it: concentration with activity.
The next data set has as its system melanoma MM418c5. Nature of the data set: Additional in vitro activity: antitumor activity, MM418c5. As to conditions: concentration with activity. In kind it is cell-based, human.
In another data set the test system is DU145 prostate cancer. The data set can be described thus: Cell growth inhibition (Table 22), DU145. In kind it is cell-based. As to conditions: Homo sapiens, DU-145; read-out: IC50 (drug dose which inhibits cell growth by 50%) DU145. On the procedure: as §1
Another data set has as its system MM96L melanoma. Nature of the data set: Cell growth inhibition (Table 22), MM96L. The format is cell-based. The note with it: Homo sapiens, read-out: IC50 (drug dose which inhibits cell growth by 50%) MM96L. The method, then: as §1

Usually IC50 stands for the concentration that inhibits the measured activity by half.

Regarding `CCCCCCCCCCCCCC(O)CC1CC(O)CC2(CC3OC(=O)C=CC3O2)O1` (stereo not shown) [EBI-23], in the data set with ovarian C180-13S, the “antitumor activity against ovarian C180-13S at” value is 1 µg/mL. The half-maximal inhibitory concentration (IC50) with K562 leukemia was 1.7 µg/mL (≈ 3.76 µM); in the data set with CI80-13S ovarian cancer, 0.2 µg/mL (≈ 0.442 µM); with DU145 prostate cancer, 0.7 µg/mL (≈ 1.55 µM); in the data set with MM96L melanoma it was 0.15 µg/mL (≈ 0.331 µM). The “DipP (no pupae formation)” value with Drosophila melanogaster is given as “P”. Further, the “Cy Titre” value in data set [1] is 256. Further, the “Cy LD99” value in [1] (listed as EB77.LA4.92-100) came out at 0.24 µg/mL; in [1] (listed as EB116.LA3.31-27/32) it was 0.78 µg/mL; in data set [1] (listed as EB116.LA3.60-40/42), 0.78 µg/mL. The “antitumor activity against breast MCF-7 at” value with breast MCF-7 amounted to 1 µg/mL. Also, the “Ne Titre” value in the data set with Haemonchus contortus came to 1. Also, the “Ne LD99” value stood at 63 µg/mL in the data set with Haemonchus contortus (listed as EB77.LA4.92-100) and 100 µg/mL in the data set with Haemonchus contortus (listed as EB116.LA3.31-27/32). Moreover, the “antitumor activity against melanoma MM96L at” value in the data set on melanoma MM96L was 1 µg/mL. Further, in the data set with prostate DU145, the “antitumor activity against prostate DU145 at” value turned out to be 3 µg/mL. The “cytotoxic activity against normal human fibroblasts (NFF) at” value in [2] was determined as 30 µg/mL. Moreover, the inhibition of transformation entry in [3] is reported as “strong inhibition”. Besides, the “antitumor activity against leukemia K562 at” value with leukemia K562 is 3 µg/mL. Also, the “antitumor activity against melanoma MM418c5 at” value with melanoma MM418c5 is 1 µg/mL.

For the molecule `CC/C=C/CCCCCCCCCCCC(O)CC1CC(O)CC2(CC3OC(=O)C=CC3O2)O1` (stereo not shown) [EBI-24], the “antitumor activity against ovarian C180-13S at” value in the data set on ovarian C180-13S is 3 µg/mL. Also, the IC50 in the data set on K562 leukemia is 0.6 µg/mL (≈ 1.25 µM); in the data set with CI80-13S ovarian cancer, 0.75 µg/mL (≈ 1.57 µM); in the data set on DU145 prostate cancer, 0.7 µg/mL (≈ 1.46 µM); with MM96L melanoma, 1.3 µg/mL (≈ 2.72 µM). For the same molecule, the “DipH (no hatching of flies)” value in the data set with Drosophila melanogaster is recorded as “P/P”. Also, the “DipP (no pupae formation)” value in the data set on Drosophila melanogaster is reported as “P/P”. Also, the “Cy LD99” value in data set [1] was 0.78 µg/mL. In the data set with breast MCF-7, the “antitumor activity against breast MCF-7 at” value turned out to be 10 µg/mL. Further, the “Ne LD99” value in the data set on Haemonchus contortus (listed as EB116.LA3.31-36/40) stood at 100 µg/mL; in the data set with Haemonchus contortus (listed as EB116.LA3.60-47/49), 50 µg/mL. The “antitumor activity against melanoma MM96L at” value with melanoma MM96L is 3 µg/mL. In addition, in the data set on prostate DU145, the “antitumor activity against prostate DU145 at” value amounted to 10 µg/mL. Moreover, the “cytotoxic activity against normal human fibroblasts (NFF) at” value in data set [2] worked out at 10 µg/mL. In addition, the inhibition of transformation entry in [3] was “strong inhibition”. Besides, the “antitumor activity against leukemia K562 at” value in the data set with leukemia K562 worked out at 10 µg/mL. For the same molecule, in the data set with melanoma MM418c5, the “antitumor activity against melanoma MM418c5 at” value is 10 µg/mL.
